Assay results from US11169145B2, “Methods of detection and treatment for cardiovascular disease and foot wounds” (Washington University, priority 2017, dated 2021).
Entries after “also recorded” stand apart in the source; their conditions may differ.

Legend:
[1] = cited from earlier work
[2] = cited from earlier work; remark: listed apart in the source
[3] = MR-derived skeletal muscle blood flow (SMBF) in subjects with T2D with or without Cilostazol therapy; assay type: in vivo, human; conditions: subjects with T2D, 12 months of Cilostazol vs not treated, at rest and with exercise; critically ischemic limbs (ABI <0.5)
Description: MG=Medial Gastrocnemius, SOL=Soleus, color bar unit=ml/min/100 g.

[4] = test system: serum circulating Fatty Acid Synthase (cFAS); experiment: Serum cFAS (ELISA) in subjects with T2D and PAD with or without Cilostazol therapy; assay type: in vivo, human; conditions: subjects with T2D and PAD receiving Cilostazol therapy vs subjects not receiving the medication
Procedure: FIG. 9A-FIG. 9C is a series of graphs showing serum cFAS is a biomarker for disease subjects with PAD and T2D. cFAS was evaluated using 96-well ELISA (Aviva Systems Biology) FIG. 9A. Subjects with severe PAD (n=29) had more serum cFAS than subjects with moderate PAD (n=30), and subjects with no PAD (n=22). FIG. 9B. cFAS is elevated in subjects with T2D (n=40) compared to no T2D (n=41). FIG. 9C. cFAS is also elevated in subjects with DCSI ≥5 (n=15) compared to DCSI <5 (n=14). FIG. 11A-FIG. 11B is a pie chart and box plot showing cilostazol in our subjects with T2D and PAD. FIG. 11A. In our current clinical practice, Cilostazol therapy is currently administered to only a minority of subjects, and therefore the majority of patients would likely meet study eligibility criteria. FIG. 11B. Subjects with T2D and PAD who receive Cilostazol therapy have lower cFAS (whiskers indicate max and min values) in study cohort. Over a 1 year period, we collected serum specimens from subjects with peripheral arterial disease (PAD; severe or moderate), and/or T2D. Serum cFAS content and enzymatic activity was evaluated as a potential biomarker for PAD and T2D disease severity. […] We retrospectively reviewed patient encounters at the Barnes-Jewish Hospital vascular surgery clinic over a 6-month period to determine the prevalence of Cilostazol prescriptions among subjects with T2D, PAD and/or FWs.

[5] = cited from earlier work; remark: listed apart in the source
[6] = cited from earlier work; remark: listed apart in the source
[7] = 3 to 6 month course of Cilostazol therapy
[8] = 8-week course, patients with T2D and PAD

O=C1CCc2cc(OCCCCc3nnnn3C3CCCCC3)ccc2N1 [Cilostazol, 6-[4-(1-cyclohexyl-1H-tetrazol-5-yl)butoxy]-3,4-dihydrocarbostyril]
increase in walking distance ([1]; 3-month treatment course, patients with claudication): 35-50%
limb function (walking distance) ([1]; previous studies): improve
pro-atherogenic / serum lipid profiles [2, 7]: improve; also recorded: normalize
total cholesterol and serum LDL [2, 7]: decrease
risk of total vascular events, especially cerebrovascular events ([2]; meta-analysis of 12 RCTs, patients with T2D): significantly decrease
PUFA to SFA ratio ([2]; previous literature): alter
skeletal muscle blood flow (SMBF), lower leg perfusion by MR [3]: improved perfusion; also recorded: Subject not treated with Cilostazol (top) demonstrated less lower leg perfusion
serum cFAS [4]: significantly lower
lower extremity ischemic symptoms [5, 8]: improving
peripheral skin perfusion detected with transcutaneous oxygen pressure (TcPO2) [5, 8]: improve
onset of FWs ([5]; patients with T2D): prevent
peripheral skin perfusion ([5]; previous studies): enhance
wound healing ([5]; previous studies): promote
effect on Class III-IV heart failure ([6]; FDA black-box warning in this patient population): can exacerbate the condition
minor side effect: abdominal pain ([6]; incidence): 5%
minor side effect: arthritis ([6]; incidence): 2%
minor side effect: cough ([6]; incidence): 4%
minor side effect: diarrhea ([6]; incidence): 19%
minor side effect: dizziness ([6]; incidence): 10%
minor side effect: dyspepsia ([6]; incidence): 6%
minor side effect: flatulence ([6]; incidence): 3%
minor side effect: headaches ([6]; incidence): 34%
minor side effect: myalgia ([6]; incidence): 3%
minor side effect: nausea ([6]; incidence): 7%
minor side effect: pharyngitis ([6]; incidence): 10%
minor side effect: skin rash ([6]; incidence): 2%
minor side effect: vertigo ([6]; incidence): 2%
minor side effect: vomiting ([6]; incidence): 2%
